Data as given in patent publication US20240124431A1, “2,3-DIHYDRO-4H-BENZO[B][1,4]OXAZIN-4-YL)(5-(PHENYL)-PYRIDIN-3-YL)METHANONE DERIVATIVES AND SIMILAR COMPOUNDS AS CYP11A1 INHIBITORS FOR THE TREATMENT OF PROSTATE CANCER” (ORION CORPORATION, priority 2020, published 2024).

These molecules were tested against T1, CYP11A1 (Homo sapiens, UniProt P05108) (assay: CYP11A1 inhibition: pregnenolone biosynthesis measured by ELISA in NCI-H295R cells). Details: NCI-H295R cells treated for 24 hours, 10 concentrations in duplicates, read-out: IC50 on CYP11A1 inhibition (Group).
T1 construct: endogenous in cells; host or cells: NCI-H295R
T1 sequence (P05108 40-521): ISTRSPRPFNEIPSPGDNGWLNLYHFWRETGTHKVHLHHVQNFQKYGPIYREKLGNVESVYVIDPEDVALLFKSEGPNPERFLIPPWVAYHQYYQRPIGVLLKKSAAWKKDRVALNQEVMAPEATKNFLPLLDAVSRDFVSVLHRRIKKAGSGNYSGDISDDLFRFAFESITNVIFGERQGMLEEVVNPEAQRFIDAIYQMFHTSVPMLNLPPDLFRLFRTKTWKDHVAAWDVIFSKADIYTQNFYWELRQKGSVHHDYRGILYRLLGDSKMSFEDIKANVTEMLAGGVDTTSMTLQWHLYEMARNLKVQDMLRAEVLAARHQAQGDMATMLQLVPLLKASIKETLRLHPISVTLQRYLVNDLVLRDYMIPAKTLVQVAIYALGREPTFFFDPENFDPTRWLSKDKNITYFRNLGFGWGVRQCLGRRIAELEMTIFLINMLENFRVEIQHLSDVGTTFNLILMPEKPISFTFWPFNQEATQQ
Assay type: cell-based
Method: The ability of the test compounds to inhibit pregnenolone biosynthesis was measured by enzyme-linked immunosorbent assay (ELISA) detecting pregnenolone (Abnova Pregnenolone ELISA Kit, KA1912). […] To determine the half maximal inhibitory concentration (IC50) of the test compounds on CYP11A1 inhibition, the cells were treated for 24 hours with increasing concentrations of the test compound. The final DMSO concentration was 0.4%. Medium samples were diluted 1:6 and pregnenolone amounts determined with ELISA. Manufacturer's recommended protocols were used and pregnenolone (Sigma-Aldrich, P9129) standards were prepared in cell culture medium. Absorbance (A450) was measured with Envision plate reader (PerkinElmer). All the test compounds were studied at 10 concentrations in duplicates.

`COc1ccc(-c2cncc(CC(=O)N3CCOc4ccccc43)c2)cc1` [Compound 80, 1-(2,3-Dihydro-4H-benzo[b][1,4]oxazin-4-yl)-2-(5-(4-methoxyphenyl)pyridin-3-yl)ethan-1-one] and `O=C(Cc1cncc(-c2ccc(F)cc2)c1)N1CCOc2ccccc21` [Compound 86, 1-(2,3-Dihydro-4H-benzo[b][1,4]oxazin-4-yl)-2-(5-(4-fluorophenyl)pyridin-3-yl)ethan-1-one] fall in the same range of IC50: 201 to 2500 nM for the first, 201 to 2500 nM for the second.

`c1ccc(-c2cncc(CN3CCOc4ccccc43)c2)cc1` [Compound 81, 4-((5-Phenylpyridin-3-yl)methyl)-3,4-dihydro-2H-benzo[b][1,4]oxazine] and `Fc1ccc(-c2cncc(CN3CCOc4ccccc43)c2)cc1` [Compound 91] fall in the same range of IC50: 201 to 2500 nM for the first, 201 to 2500 nM for the second.

Compared with `Cc1cn(-c2cncc(C(=O)N3CCCc4ccccc43)c2)cn1` [Compound 82, (3,4-Dihydroquinolin-1(2H)-yl)(5-(4-methyl-1H-imidazol-1-yl)pyridin-3-yl)-methanone], `Cc1cnn(-c2cncc(C(=O)N3CCCc4ccccc43)c2)c1` [Compound 88, (3,4-Dihydroquinolin-1(2H)-yl)(5-(4-methyl-1H-pyrazol-1-yl)pyridin-3-yl)-methanone] is lower in IC50: 201 to 2500 nM for the first, less than 50 nM for the second.

`Cc1cn(-c2cncc(C(=O)N3CCCc4ccccc43)n2)cn1` [Compound 83, (3,4-Dihydroquinolin-1(2H)-yl)(6-(4-methyl-1H-imidazol-1-yl)pyrazin-2-yl)-methanone] and `Cc1cnn(-c2cncc(C(=O)N3CCCc4ccccc43)n2)c1` [Compound 84, (3,4-Dihydroquinolin-1(2H)-yl)(6-(4-methyl-1H-pyrazol-1-yl)pyrazin-2-yl)-methanone] cannot be ordered by IC50: less than 50 nM for the first, less than 50 nM for the second.

First: O=C(c1cncc(Cc2ccccc2)n1)N1CCCc2ccccc21 [Compound 85, (6-Benzylpyrazin-2-yl)(3,4-dihydroquinolin-1(2H)-yl)methanone]
Second: Cc1cc(C)n(-c2cncc(C(=O)N3CCCc4ccccc43)n2)n1 [Compound 87, (3,4-Dihydroquinolin-1(2H)-yl)(6-(3,5-dimethyl-1H-pyrazol-1-yl)pyrazin-2-yl)-methanone]
The IC50 of the first is higher: 201 to 2500 nM for the first, 51 to 200 nM for the second. The second is the more potent here.

`Fc1ccc(-c2cncc(CN3CCCc4ccccc43)c2)cc1` [Compound 89, 1-((5-(4-Fluorophenyl)pyridin-3-yl)methyl)-1,2,3,4-tetrahydroquinoline] and `Fc1ccc(-c2cncc(CN3CCc4ccccc43)c2)cc1` [Compound 90, 1-((5-(4-Fluorophenyl)pyridin-3-yl)methyl)indoline] fall in the same range of IC50: 51 to 200 nM for the first, 51 to 200 nM for the second.
